From patent publication US20230057568A1, “COMPOUNDS FOR TREATING FAMILIAL DYSAUTONOMIA” (PTC THERAPEUTICS, INC., priority 2019, published 2023)

Tested on: Elongator complex protein 1 (ELP1, also referred to as IKBKAP)
Assay: IKBKAP-HTRF Assay
Format: cell-based, human
Details: FD patient-derived fibroblasts GM04589, 48 hours incubation; for EC2x for IKBKAP protein expression (concentration producing two times the amount of IKBKAP protein vs DMSO vehicle control): 7-point concentration curve; for MFI (maximum fold increase in IKBKAP protein abundance relative to the vehicle control): HTRF
How it was run: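 FD patient cells in DMEM-10% FBS were treated 48 hours at 37 °C with a 7-point, 3.16-fold compound series in triplicate, then lysed. IKBKAP was quantified by sandwich HTRF with two anti-IKAP antibodies, incubated overnight at 4 °C and read at 665/620 nm. MFI is AF relative to vehicle, and EC2× is the concentration doubling IKBKAP versus DMSO.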

SMILES	EC2x for IKBKAP protein expression (concentration producing two times the amount of IKBKAP protein vs DMSO vehicle control)	MFI (maximum fold increase in IKBKAP protein abundance relative to the vehicle control)
Cc1c(C[C@H](C)NC2CCC2)sc2c(NCc3ccco3)nc(Cl)nc12 [Cpd 78, 2-chloro-6-[(2S)-2-(cyclobutylamino)propyl]-N-[(furan-2-yl)methyl]-7-methylthieno[3,2-d]pyrimidin-4-amine]	*** (between >0.02 μM and ≤0.5 μM)	*** (between >2.9 and <3.9)
C[C@H](N)Cc1sc2c(NCc3cccs3)nc(C#N)nc2c1C#N [Cpd 85, 6-[(2S)-2-aminopropyl]-4-{[(thiophen-2-yl)methyl]amino}thieno[3,2-d]pyrimidine-2,7-dicarbonitrile]	*** (between >0.02 μM and ≤0.5 μM)	*** (between >2.9 and <3.9)
Cc1c(C2CCNC2)sc2c(NCc3ccco3)nc(Cl)nc12 (centres unmarked) [Cpd 57, 2-chloro-N-[(furan-2-yl)methyl]-7-methyl-6-(pyrrolidin-3-yl)thieno[3,2-d]pyrimidin-4-amine]	*** (between >0.02 μM and ≤0.5 μM)	*** (between >2.9 and <3.9)
Clc1nc(NCc2ccncc2)c2sccc2n1 [Cpd 1, 2-chloro-N-[(pyridin-4-yl)methyl]thieno[3,2-d]pyrimidin-4-amine]	* (EC2×>1 μM)	**** (between >3.9 and <4.9)
Cc1nc(NCc2ccco2)c2sc(C[C@H](C)N)c(C)c2n1 [Cpd 15, 6-[(2S)-2-aminopropyl]-N-[(furan-2-yl)methyl]-2,7-dimethylthieno[3,2-d]pyrimidin-4-amine]	**** (between >0.005 μM and ≤0.02 μM)	***** (>4.9)
Cc1c(C[C@H](C)N)sc2c(NCc3ccncc3)nc(Cl)nc12 [Cpd 45, 6-[(2S)-2-aminopropyl]-2-chloro-7-methyl-N-[(pyridin-4-yl)methyl]thieno[3,2-d]pyrimidin-4-amine]	***** (<0.005 μM)	***** (>4.9)
Clc1nc(NCc2ccco2)c2scc(Br)c2n1 [Cpd 42, 7-bromo-2-chloro-N-[(furan-2-yl)methyl]thieno[3,2-d]pyrimidin-4-amine]	*** (between >0.02 μM and ≤0.5 μM)	***** (>4.9)
CC[C@@H](N)c1sc2c(NCc3ccco3)nc(Cl)nc2c1C [Cpd 49, 6-[(1R)-1-aminopropyl]-2-chloro-N-[(furan-2-yl)methyl]-7-methylthieno[3,2-d]pyrimidin-4-amine]	* (EC2×>1 μM)	* (MFI<1.9)
COc1ccc(-c2c(C[C@H](C)N)sc3c(NCc4ccco4)nc(Cl)nc23)cc1 [Cpd 65, 6-[(2S)-2-aminopropyl]-2-chloro-N-[(furan-2-yl)methyl]-7-(4-methoxyphenyl)thieno[3,2-d]pyrimidin-4-amine]	* (EC2×>1 μM)	* (MFI<1.9)
Cc1csc2c(NCc3ccco3)nc(Cl)nc12 [Cpd 18, 2-chloro-N-[(furan-2-yl)methyl]-7-methylthieno[3,2-d]pyrimidin-4-amine]	*** (between >0.02 μM and ≤0.5 μM)	***** (>4.9)
Cc1c(C[C@H](C)N)sc2c(NCc3cnco3)nc(Cl)nc12 [Cpd 75, 6-[(2S)-2-aminopropyl]-2-chloro-7-methyl-N-[(1,3-oxazol-5-yl)methyl]thieno[3,2-d]pyrimidin-4-amine]	*** (between >0.02 μM and ≤0.5 μM)	***** (>4.9)
N#Cc1csc2c(NCc3cccs3)nc(Cl)nc12 [Cpd 84, 2-chloro-4-{[(thiophen-2-yl)methyl]amino}thieno[3,2-d]pyrimidine-7-carbonitrile]	*** (between >0.02 μM and ≤0.5 μM)	**** (between >3.9 and <4.9)
C[C@H](N)Cc1sc2c(NCc3cccs3)nc(Cl)nc2c1C1CC1 [Cpd 86, 6-[(2S)-2-aminopropyl]-2-chloro-7-cyclopropyl-N-[(thiophen-2-yl)methyl]thieno[3,2-d]pyrimidin-4-amine]	**** (between >0.005 μM and ≤0.02 μM)	**** (between >3.9 and <4.9)
Cc1c([C@@H](C)N)sc2c(NCc3ccco3)nc(Cl)nc12 [Cpd 94, 6-[(1R)-1-aminoethyl]-2-chloro-N-[(furan-2-yl)methyl]-7-methylthieno[3,2-d]pyrimidin-4-amine]	* (EC2×>1 μM)	* (MFI<1.9)
Cc1c(C[C@H](C)N)sc2c(NCc3ccc(F)s3)nc(Cl)nc12 [Cpd 33, 6-[(2S)-2-aminopropyl]-2-chloro-N-[(5-fluorothiophen-2-yl)methyl]-7-methylthieno[3,2-d]pyrimidin-4-amine]	**** (between >0.005 μM and ≤0.02 μM)	**** (between >3.9 and <4.9)
Cc1c(C[C@@H](N)CO)sc2c(NCc3cccs3)nc(Cl)nc12 [Cpd 56, (2R)-2-amino-3-(2-chloro-7-methyl-4-{[(thiophen-2-yl)methyl]amino}thieno[3,2-d]pyrimidin-6-yl)propan-l-ol]	***** (<0.005 μM)	***** (>4.9)
CCc1nc(NCc2ccco2)c2sc(C[C@H](C)N)c(C)c2n1 [Cpd 16, 6-[(2S)-2-aminopropyl]-2-ethyl-N-[(furan-2-yl)methyl]-7-methylthieno[3,2-d]pyrimidin-4-amine]	*** (between >0.02 μM and ≤0.5 μM)	*** (between >2.9 and <3.9)
Cc1c(C[C@H](C)N)sc2c(NCc3cccs3)nc(Cl)nc12 [Cpd 28, 6-[(2S)-2-aminopropyl]-2-chloro-7-methyl-N-[(thiophen-2-yl)methyl]thieno[3,2-d]pyrimidin-4-amine]	***** (<0.005 μM)	***** (>4.9)
Cc1c(C[C@H](C)CO)sc2c(NCc3ccco3)nc(Cl)nc12 [Cpd 66, (2S)-3-(2-chloro-4-{[(furan-2-yl)methyl]amino}-7-methylthieno[3,2-d]pyrimidin-6-yl)-2-methylpropan-1-ol]	* (EC2×>1 μM)	* (MFI<1.9)
